Source: US9045474B2, “Compounds and compositions for mitigating tissue damage and lethality” (The Regents of the University of California, priority 2010, dated 2015)
Entries after “also recorded” stand apart in the source; their conditions may differ.

How the values were obtained:
C3H mice [1] = assay: Recovery of the hematopoietic system after 6 Gy irradiation; type: in vivo, mouse
From the text: WBC-total white blood cells (K/uL), NE—neutrophils (K/uL), and LY—lymphocytes (K/uL). With 1—tail, Student's t-Student's t-test, WBC and NE, along with monocytes, eosinophils, and basophils (data not shown) are p<0.05.
RBC— red blood cells (M/uL), HB-hemoglobin (g/dL), and HCT-hematocrit (%).

[2] = system: RS112 strain of S. cerevisiae; assay: Classical DEL plating assay, radioprotection at 2000Gy irradiation; type: cell-based, Saccharomyces cerevisiae
Method: All DEL assays utilize the established methodology of “recombination” (deletion of the interruption segment and consequent end joining of the adjacent sequences) of a disrupted histidine gene that renders yeast cells exposed to radiation capable of growing on media lacking this amino acid. In the classical DEL assay radiation sensitive RS112 strain of S. cerevisiae is added to the compounds of interest suspended in complete media, incubated for 2 hrs, and irradiated at 2000Gy. The cells are then plated onto full (+13) and lacking histidine (−His) agar plates. After incubation the colonies are scored and recombination events are calculated. The efficacy of the compound is evaluated as a reduced fraction of DEL recombinations in comparison to that of irradiated controls without treatment. Radioprotectors decrease the frequency of such recombination frequencies after radiation exposure.
A plasmid with an internal fragment of the HIS3 gene, which is responsible for histidine synthesis in yeast, without which cells cannot survive in media lacking histidine, has been integrated at the HIS3 locus, yielding an integrative disruption of the HIS3 gene (Schiestl, R. H., et al., Genetics, 1988. 119(2): p. 237-47). […]

DBA/2 Mice = assay: Radiation-induced leukemia model; type: in vivo, mouse
Method: DBA/2 Mice (15/group) were irradiated with ^60Co (3.5 Gy, 0.6 Gy/min) to induce leukemia. One group received no drug, another group of mice were injected s.c. with Yel001 or Yel002 (25 mg/kg) with 5 injections for 5 days. Leukemogenesis was monitored for 90 days. Blood was drawn at days −1, 21, 42, and 63 to monitor for leukemia every 21 days to monitor for leukemia development using WBCs and differentials. This leukemia model takes advantage of non-targeted radiation effects, which are important to the carcinogenic process. This model has a shorter latency period to gamma radiation-induced leukemia (latency to 50% leukemic population: 107 days) than other murine leukemia models such as CBA mouse (399 days: 50% leukemic population). DBA/2 mice were irradiated with 3.5 Gy (^60Co 0.60 Gy/min) and then injected intravenously with (5×10^6) FDC-P1 cells. Animals were then monitored 5×/weekly for 10 weeks-post-injection and then daily after 10 weeks-post-injection until leukemia development and/or euthanasia. After the animal has been determined to be leukemic using hematological parameters, it is euthanized and a necropsy is conducted to definitively determine a conclusive diagnosis of leukemia. Control animals not developing leukemia are assessed at 270 days post experiment initiation. At that time they are euthanized and necropsied.

DEL RS112 tester strain = assay: DEL assay, damage by chemical carcinogen MMS; type: cell-based, Saccharomyces cerevisiae; conditions: 15 uM, 1 hrs after exposure to MMS
From the text: A DEL assay, described above, is used for assessing mitigation of damage induced by chemical carcinogens by compounds of invention.
Tests in this example show administration of Yel001 and Yel002 confers reduction against chemical carcinogen Methyl methanesulfonate (MMS) in vitro.
Reduction of cytotoxicity and genotoxicity with Yel002 is p<0.007 and p<0.04 restively; p-values for Yel001 are 0.0007 (genotoxicity) and 0.1 for cytotoxicity.

OMM lymphocytes = assay: γH2AX assay, cigarette smoke extract induced double strand breaks; type: cell-based, mouse; conditions: 3 puff/mL cigarette smoke extract, 6 and 24 hrs, Ogg−/− Myh−/− mice
Method: Whole peripheral blood lymphocytes were taken from WT, and OMM double knockout mice (mice deficient in DNA repair pathways observed in smoking-induced lung cancer) and were administered 3 puff/mL of Cigarette smoke extract (CSE) alone or co-incubation of 3 puff/mL Cigarette smoke extract and 10 uM Yel 002 for 3, 6, and 24 hrs and the amount of double stranded breaks were assessed via γH2AX assay. […] Statistical significance was assessed via a 1 way ANOVA test with Tukey's post-hoc analysis. […] Statistical significance was assessed via a 1 way ANOVA test with Tukey's post-hoc analysis. N=3 in each group.

C3H mice [3] = assay: Toxicity experiments in C3H mice; type: in vivo, mouse; conditions: 150 mg/kg, 75 mg/kg and 5 mg/kg; 120 days following the injections
Method: Having seen no adverse effects of the chemicals alone on mammalian cell models we performed a preliminary toxicity study on a group of C3H mice. […] In a pilot reproductive toxicity study, 12, week old female mice were paired up with 6 week old male mice and checked daily for the presence of a characteristic “plug” in the female vaginal canal as an indication of mating. As soon as the mating has occurred, males were removed and the females were treated weekly with 75 mg/kg s.c. throughout the gestation period and until the pups were weaned off (8 week treatment course). After weaning, treatment of the offspring was initiated at the same 75 mg/kg s.c. weekly dose. Controls were injected s.c. on the same schedule with the carrier (1N saline). Five treated and five control females gave birth to the same average number of pups per litter (n=6) without any detectable toxicities to the other. 3 litters of each treated and control groups survived to continue the study. No pathologies, toxicities nor adverse effects were observed. There are no developmental or teratogenic deficiencies in mice, average weights (21 g) are the same in both groups also.

C3H mice [4] = assay: Radioprotection experiments in C3H mice (8Gy, compound before exposure); type: in vivo, mouse; conditions: 8Gy (LD100/30), 75 mg/kg
From the text: Only the results for Compound 4 are significant at Day 14 post irradiation. Irradiated controls died on Day 13 while most of the treated mice survived to Day 18, and mice in group 4 and 1 have survived to Day 24. The limitation of this study was the number of mice in each group due to the small quantities of the commercially available compounds.

[5] = system: primary human keratinocytes; assay: Senescence of primary keratinocytes in co-culture; type: cell-based

## COc1ccc2cc(-c3nc4ccc(C)cn4c3NCc3ccco3)c(=O)[nH]c2c1 [Yel002]
C3H mice [1]; 75 mg/kg s.c. 5×24
  recovery of total white blood cells, red blood cells, and platelets: increases the recovery
C3H mice [1]; 75 mg/kg s.c. 5×24 hr schedule
  recovery of the hematopoietic system: promote the recovery of the hematopoietic system
[2]
  radioprotector characteristics (genotoxicity and cytotoxicity protection): radioprotector characteristics
DBA/2 Mice; 3.5 Gy, 25 mg/kg s.c., no drug also within 42 days
  first development of leukemia: 42 days
DBA/2 Mice; Day 94, 3.5 Gy, 25 mg/kg s.c. 5 injections, irradiated controls 30%
  mice exhibiting leukemia: 10%
DBA/2 Mice; Day 270, irradiated population 90%
  leukemia frequency: 40%
DBA/2 Mice; FIG. 17
  latency to leukemia development: increased latency to leukemia development
DBA/2 Mice; FIG. 18
  frequency of radiation induced and/or spontaneous cancer: effective for reducing the frequency of radiation induced and spontaneous cancer
DEL RS112 tester strain
  genotoxicity and cytotoxicity by MMS: reduction in genotoxicity and cytotoxicity; also recorded: can be mitigated
OMM lymphocytes
  double strand breaks / average γH2AX per cell: reduces the number of DNA double strand breaks
OMM lymphocytes; listed as YEL 002
  double strand breaks / average γH2AX per cell: significantly reduces cigarette smoke induced double strand breaks; also recorded: significantly decreases the amount of average γH2AX per cell
C3H mice [3]
  adverse physiological or behavioral effects: did not show any adverse physiological nor behavioral adverse effects
C3H mice [4]; listed as 5
  survival versus 8 Gy control group: noticeable difference in survival
C3H mice [4]; listed as Compound 5
  survival versus 8 Gy control group: increase in survival
[5]
  doubling time of the cells: extended the doubling time
[5]; 5 uM
  progression into senescence: decreased progression of cells into senescence; also recorded: decreases the progression into senescence
